Assays:
Assay type in all cases: cell-based, Escherichia coli
[1] = test system: E. coli clinical strain 7704; experiment: clinical gradient diffusion (E-test, bioMérieux); conditions: gradient diffusion overnight
Experimental: (§1) Following testing of the QC strains, the cAST platform was used to test two E. coli clinical isolates. Following the same protocol used to test the QC strains, the clinical isolates were tested with ten two-fold dilution gentamicin concentrations spanning 0.5 μg/mL to 256 μg/mL. Testing was conducted blind and results were subsequently compared with clinical results generated using gradient diffusion (E-test, bioMérieux).

[2] = test system: E. coli clinical strain 7426; experiment: clinical gradient diffusion (E-test, bioMérieux); conditions: gradient diffusion overnight
Experimental: as §1

[3] = test system: E. coli clinical strain 7704; experiment: cAST platform antimicrobial susceptibility testing (resazurin, capillary format)
Experimental: (§2) The disclosure includes use of steel capillary tubes of size 50 mm×1.59 mm×0.76 mm (L×O.D.×I.D.) to hold the samples. Alternatively, glass capillary tubes (Drummond Scientific) of similar size can also be used. However, in the case of glass, the ends of the tubes are coated with paint or a similar substance to prevent excess light from the LEDs leaking into the fiber-optic detector. During sample loading, 4 μL liquid culture droplets were individually pipetted onto a clean substrate and then loaded into the tubes via capillary action. The capillary tubes used as conduits were sterilized prior to loading through autoclaving. Following loading, tubes were inserted into the sample holder in a configuration that allows light from the LEDs to pass through the sample and into the fiber-optic detector. Since the volume capacity of the capillary tubes was higher than the sample volume of 4 μL, the tubes were loaded with the fluid-filled side near the light-source as this configuration was determined to yield higher signal-to-noise ratios. This approach to sample loading is encompassed by the disclosure. During AST, the cAST platform was placed inside a benchtop incubator (Corning) set to 37° C. in ambient air. A small portable humidifier was also placed inside the incubator (80-85% relative humidity) to minimize sample drying during incubation. Thus, in embodiments, a system of the disclosure may include a humidifying device or composition to act as […]. Every 30 min, spectral intensity measurements were automatically taken for each sample and data were transferred and stored on a computer for processing using OceanView (Ocean Optics).
(§3) The cAST platform was initially used to test five different quality control (QC) strains: Escherichia coli ATCC 25922, Enterobacter cloacae ATCC 13047, Acinetobacter baumannii ATCC BAA-747, Pseudomonas aeruginosa ATCC 27853, and Escherichia coli K12 ER2267 (kanamycin resistant). To prepare inocula for AST, strains were first streaked on Mueller-Hinton II agar plates (Becton, Dickinson and Company) and incubated overnight at 37° C. in ambient air. For the kanamycin resistant E. coli K12 strain, the agar was supplemented with kanamycin (MilliporeSigma) at a final concentration of 50 μg/mL. Liquid cultures were then prepared by inoculating single colonies into CAMHB, followed by overnight incubation at 37° C. in ambient air. […] Using a spectrophotometer (V-1200, VWR), the OD625nm absorbance corresponding to a 0.5 McFarland standard was verified to be in the range of 0.08-0.13^21. […] Resazurin is a redox indicator that is reduced by metabolically active cells into resorufin, leading to significant colorimetric and fluorescent changes in the culture media which can be measured to gauge bacterial growth^20. […]

[4] = test system: E. coli clinical strain 7426; experiment: as above
Experimental: as §2, §3

[5] = cAST in categorical agreement with gradient diffusion

With gentamicin the MIC [1] was 1.5 µg/mL, the MIC [2] was ≥ 256 µg/mL and the “predicted MIC” value ([3]; cAST at 6 h) was 1 µg/mL. The susceptibility category [3, 5] was “susceptible (susceptible (≤4 μg/mL))”, the “predicted MIC” value ([4]; cAST at 6 h) was 128 µg/mL and the susceptibility category [4, 5] was “resistant (resistant (≥16 μg/mL))”.

From patent US12391972B2, “Capillary-based system for accelerated antimicrobial susceptibility testing” (Cornell University, priority 2019, dated 2025)
